In patent US11834453B2, “Substituted pyrimido[5,4-d]pyrimidines as HER2 inhibitors” (Array BioPharma Inc., priority 2020, dated 2023):

The compounds below were run against ErbB2 WT (Homo sapiens (Human), UniProt P04626) (assay: ErbB enzyme assay (CisBio HTRF KinEASE-TK), Assay 2). Conditions: not given.
Format: biochemical
Procedure, shortened: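 ErbB2 phosphorylates 250 nM biotin-TK substrate at 1 mM ATP in 25 mM HEPES pH 7.4, 10 mM MgCl2, 0.01% Triton X-100 and 2% DMSO, for 30 min at 22 °C. Product is detected by HTRF with Sa-XL665 and TK-Ab-Cryptate. Percent of control is set by DMSO-only wells and pre-quenched wells.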

ErbB2 WT, sequence (P04626 23-1255): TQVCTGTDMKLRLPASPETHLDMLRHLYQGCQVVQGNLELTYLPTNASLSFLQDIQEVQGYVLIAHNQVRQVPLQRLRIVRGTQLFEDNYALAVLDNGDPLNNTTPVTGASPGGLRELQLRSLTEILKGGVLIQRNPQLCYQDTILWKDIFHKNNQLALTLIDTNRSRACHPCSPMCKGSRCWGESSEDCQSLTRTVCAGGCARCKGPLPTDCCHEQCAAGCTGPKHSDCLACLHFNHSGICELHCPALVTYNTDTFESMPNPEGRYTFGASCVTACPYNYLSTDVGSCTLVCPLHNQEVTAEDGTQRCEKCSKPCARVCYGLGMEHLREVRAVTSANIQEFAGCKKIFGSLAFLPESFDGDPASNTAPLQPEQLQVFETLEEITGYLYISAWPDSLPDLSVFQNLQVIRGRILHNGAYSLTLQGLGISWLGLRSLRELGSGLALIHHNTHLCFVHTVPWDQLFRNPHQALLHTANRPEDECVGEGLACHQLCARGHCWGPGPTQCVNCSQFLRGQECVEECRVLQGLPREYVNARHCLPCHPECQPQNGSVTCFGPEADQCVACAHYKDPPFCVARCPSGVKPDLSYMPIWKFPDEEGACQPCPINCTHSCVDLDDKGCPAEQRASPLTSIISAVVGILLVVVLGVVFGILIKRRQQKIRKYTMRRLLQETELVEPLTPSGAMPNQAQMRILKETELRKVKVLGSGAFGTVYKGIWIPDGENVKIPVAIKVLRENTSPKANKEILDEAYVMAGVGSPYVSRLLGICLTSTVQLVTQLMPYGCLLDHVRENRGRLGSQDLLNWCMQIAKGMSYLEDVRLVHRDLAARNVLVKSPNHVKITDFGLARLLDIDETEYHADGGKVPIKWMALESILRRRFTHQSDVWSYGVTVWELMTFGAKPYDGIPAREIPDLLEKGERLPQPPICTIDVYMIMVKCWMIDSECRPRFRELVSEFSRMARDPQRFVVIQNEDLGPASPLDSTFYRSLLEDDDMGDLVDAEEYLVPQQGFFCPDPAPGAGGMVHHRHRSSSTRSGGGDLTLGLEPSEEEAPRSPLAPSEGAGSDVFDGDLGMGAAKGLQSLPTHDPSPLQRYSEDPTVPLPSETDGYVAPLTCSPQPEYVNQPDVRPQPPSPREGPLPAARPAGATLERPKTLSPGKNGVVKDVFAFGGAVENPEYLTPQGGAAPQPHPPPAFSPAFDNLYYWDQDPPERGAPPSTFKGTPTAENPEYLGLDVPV

Structure (SMILES) | IC50 [nM]
Cn1cnc2cc(Oc3ccc(Nc4ncnc5cnc(N6C[C@H]7CC[C@@H]6CO7)nc45)cc3Cl)ccc21 [Example 451] | 63.8
C[C@@H]1CN(c2ncc3ncnc(Nc4ccc(Oc5ccc6c(c5)ncn6C)c(Cl)c4)c3n2)CCO1 [Example 452] | 115
Cc1c(Oc2ccc3c(c2)ncn3C)ccc(Nc2ncnc3cnc(N4CC[C@H]4C(C)(C)O)nc23)c1F [Example 453] | 474
Cn1cnc2cc(Oc3ccc(Nc4ncnc5cnc(N6C[C@H]7C[C@@H]6CO7)nc45)cc3Cl)ccc21 [Example 455] | 176
CN(CC(C)(C)O)c1ncc2ncnc(Nc3ccc(Oc4ccc5c(c4)ncn5C)c(Cl)c3)c2n1 [Example 456] | 69.8
Cc1c(Oc2ccc3c(c2)ncn3C)ccc(Nc2ncnc3cnc(N4C[C@H]5C[C@@H]4CO5)nc23)c1F [Example 457] | 83.9
Cc1c(Oc2ccc3c(c2)ncn3C)ccc(Nc2ncnc3cnc(N4CC[C@H](O)C4)nc23)c1F [Example 458] | 28
Cc1cc(Nc2ncnc3cnc(N4C[C@H]5C[C@@H]4C[C@H]5O)nc23)ccc1Oc1ccc2c(c1)ncn2C [Example 459] | 36.6
Cc1cc(Nc2ncnc3cnc(N4CCC(F)(F)[C@@H](O)C4)nc23)ccc1Oc1ccc2c(c1)ncn2C [Example 460] | 89.7
Cc1cc(Nc2ncnc3cnc(N4CCC[C@](C)(O)C4)nc23)ccc1Oc1ccc2c(c1)ncn2C [Example 461] | 31.9
Cc1cc(Nc2ncnc3cnc(N4CC5CCOC5C4)nc23)ccc1Oc1ccc2c(c1)ncn2C (stereo not shown) [Example 462] | 41.5
Cc1cc(Nc2ncnc3cnc(N4CCP(C)(=O)CC4)nc23)ccc1Oc1ccc2c(c1)ncn2C [Example 463] | 275
Cc1cc(Nc2ncnc3cnc(N4CC5CC(C4)C5O)nc23)ccc1Oc1ccc2c(c1)ncn2C (stereo not shown) [Example 464] | 60.2
Cc1cc(Nc2ncnc3cnc(N4CC5(CCC5O)C4)nc23)ccc1Oc1ccc2c(c1)ncn2C (stereo not shown) [Example 465] | 47.6

What follows are compounds tested against EGFR (Homo sapiens (Human), UniProt P00533) (assay: ErbB enzyme assay (CisBio HTRF KinEASE-TK), Assay 3). Conditions: not given.
EGFR, sequence (P00533 25-1210): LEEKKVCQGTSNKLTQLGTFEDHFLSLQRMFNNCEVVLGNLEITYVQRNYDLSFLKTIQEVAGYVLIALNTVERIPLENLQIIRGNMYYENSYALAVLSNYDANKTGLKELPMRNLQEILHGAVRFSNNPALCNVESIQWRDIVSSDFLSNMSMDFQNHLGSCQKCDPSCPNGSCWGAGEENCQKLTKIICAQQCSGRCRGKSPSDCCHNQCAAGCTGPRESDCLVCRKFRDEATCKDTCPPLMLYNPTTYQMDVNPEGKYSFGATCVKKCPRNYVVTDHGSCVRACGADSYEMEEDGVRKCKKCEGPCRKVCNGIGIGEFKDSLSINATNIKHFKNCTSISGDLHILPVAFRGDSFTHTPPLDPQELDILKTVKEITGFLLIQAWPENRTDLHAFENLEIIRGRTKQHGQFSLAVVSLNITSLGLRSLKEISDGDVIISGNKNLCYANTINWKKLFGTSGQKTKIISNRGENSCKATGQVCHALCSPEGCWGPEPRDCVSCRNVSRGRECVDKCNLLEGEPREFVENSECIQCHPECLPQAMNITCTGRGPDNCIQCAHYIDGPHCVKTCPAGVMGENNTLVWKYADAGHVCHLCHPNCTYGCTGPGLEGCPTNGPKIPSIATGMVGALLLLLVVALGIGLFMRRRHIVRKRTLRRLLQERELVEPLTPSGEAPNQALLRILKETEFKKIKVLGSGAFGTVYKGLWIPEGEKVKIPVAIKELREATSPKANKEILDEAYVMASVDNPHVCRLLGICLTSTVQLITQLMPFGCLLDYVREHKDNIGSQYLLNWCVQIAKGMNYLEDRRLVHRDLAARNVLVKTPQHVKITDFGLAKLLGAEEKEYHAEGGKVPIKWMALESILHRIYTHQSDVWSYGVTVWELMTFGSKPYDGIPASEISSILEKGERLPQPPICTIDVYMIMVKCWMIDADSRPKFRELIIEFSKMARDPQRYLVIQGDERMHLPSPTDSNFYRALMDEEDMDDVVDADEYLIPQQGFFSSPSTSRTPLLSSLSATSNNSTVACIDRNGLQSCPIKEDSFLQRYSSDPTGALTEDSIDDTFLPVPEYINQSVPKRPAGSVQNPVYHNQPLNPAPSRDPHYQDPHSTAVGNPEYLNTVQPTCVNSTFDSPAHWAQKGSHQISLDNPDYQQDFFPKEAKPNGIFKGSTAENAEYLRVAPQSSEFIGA
Format: biochemical
Procedure, shortened: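 HTRF KinEASE-TK assay: kinase with 250 nM biotinylated TK-substrate and 1 mM ATP in 25 mM HEPES pH 7.4, 10 mM MgCl2, 0.01% Triton X-100, 2% DMSO, 30 min at 22 °C. Quenched with Sa-XL665/TK-Ab-Cryptate, read after 1 h. IC50 from 4-parameter fit of percent of control.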

Structure (SMILES) | IC50 [nM]
Cn1cnc2cc(Oc3ccc(Nc4ncnc5cnc(N6C[C@H]7CC[C@@H]6CO7)nc45)cc3Cl)ccc21 [Example 451] | 3500
C[C@@H]1CN(c2ncc3ncnc(Nc4ccc(Oc5ccc6c(c5)ncn6C)c(Cl)c4)c3n2)CCO1 [Example 452] | ≥ 10000
Cc1c(Oc2ccc3c(c2)ncn3C)ccc(Nc2ncnc3cnc(N4CC[C@H]4C(C)(C)O)nc23)c1F [Example 453] | ≥ 10000
Cn1cnc2cc(Oc3ccc(Nc4ncnc5cnc(N6C[C@H]7C[C@@H]6CO7)nc45)cc3Cl)ccc21 [Example 455] | ≥ 10000
CN(CC(C)(C)O)c1ncc2ncnc(Nc3ccc(Oc4ccc5c(c4)ncn5C)c(Cl)c3)c2n1 [Example 456] | 4520
Cc1c(Oc2ccc3c(c2)ncn3C)ccc(Nc2ncnc3cnc(N4C[C@H]5C[C@@H]4CO5)nc23)c1F [Example 457] | 8240
Cc1c(Oc2ccc3c(c2)ncn3C)ccc(Nc2ncnc3cnc(N4CC[C@H](O)C4)nc23)c1F [Example 458] | 1630
Cc1cc(Nc2ncnc3cnc(N4C[C@H]5C[C@@H]4C[C@H]5O)nc23)ccc1Oc1ccc2c(c1)ncn2C [Example 459] | ≥ 10000
Cc1cc(Nc2ncnc3cnc(N4CCC(F)(F)[C@@H](O)C4)nc23)ccc1Oc1ccc2c(c1)ncn2C [Example 460] | ≥ 10000
Cc1cc(Nc2ncnc3cnc(N4CCC[C@](C)(O)C4)nc23)ccc1Oc1ccc2c(c1)ncn2C [Example 461] | ≥ 10000
Cc1cc(Nc2ncnc3cnc(N4CC5CCOC5C4)nc23)ccc1Oc1ccc2c(c1)ncn2C (stereo not shown) [Example 462] | ≥ 10000
Cc1cc(Nc2ncnc3cnc(N4CCP(C)(=O)CC4)nc23)ccc1Oc1ccc2c(c1)ncn2C [Example 463] | ≥ 10000
Cc1cc(Nc2ncnc3cnc(N4CC5CC(C4)C5O)nc23)ccc1Oc1ccc2c(c1)ncn2C (stereo not shown) [Example 464] | ≥ 10000
Cc1cc(Nc2ncnc3cnc(N4CC5(CCC5O)C4)nc23)ccc1Oc1ccc2c(c1)ncn2C (stereo not shown) [Example 465] | ≥ 10000

These compounds were tested against EGFR wild type (EGFR WT) (Homo sapiens (Human), UniProt P00533) (assay: Cellular phosphorylation assay, EGF-stimulated EGFR phosphorylation in engineered NIH 3T3 cells, Phospho-EGFR DuoSet IC ELISA, Assay 5). Conditions: not given.
EGFR wild type (EGFR WT), sequence (P00533 25-1210): as above
Format: cell-based
Procedure, shortened: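 NIH 3T3 cells expressing EGFR WT (20,000/well, attached overnight) were exposed to serially diluted compound for 1 h at 37 °C, then stimulated with 100 ng/ml rEGF for 10 min. Phospho-EGFR in lysates measured by sandwich ELISA optical density; IC50 from curves.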

Structure (SMILES) | IC50 [nM]
Cn1cnc2cc(Oc3ccc(Nc4ncnc5cnc(N6C[C@H]7CC[C@@H]6CO7)nc45)cc3Cl)ccc21 [Example 451] | ≥ 5000
C[C@@H]1CN(c2ncc3ncnc(Nc4ccc(Oc5ccc6c(c5)ncn6C)c(Cl)c4)c3n2)CCO1 [Example 452] | ≥ 5000
Cc1c(Oc2ccc3c(c2)ncn3C)ccc(Nc2ncnc3cnc(N4CC[C@H]4C(C)(C)O)nc23)c1F [Example 453] | ≥ 5000
Cn1cnc2cc(Oc3ccc(Nc4ncnc5cnc(N6C[C@H]7C[C@@H]6CO7)nc45)cc3Cl)ccc21 [Example 455] | ≥ 5000
CN(CC(C)(C)O)c1ncc2ncnc(Nc3ccc(Oc4ccc5c(c4)ncn5C)c(Cl)c3)c2n1 [Example 456] | ≥ 5000
Cc1c(Oc2ccc3c(c2)ncn3C)ccc(Nc2ncnc3cnc(N4C[C@H]5C[C@@H]4CO5)nc23)c1F [Example 457] | ≥ 5000
Cc1c(Oc2ccc3c(c2)ncn3C)ccc(Nc2ncnc3cnc(N4CC[C@H](O)C4)nc23)c1F [Example 458] | ≥ 5000
Cc1cc(Nc2ncnc3cnc(N4C[C@H]5C[C@@H]4C[C@H]5O)nc23)ccc1Oc1ccc2c(c1)ncn2C [Example 459] | ≥ 5000
Cc1cc(Nc2ncnc3cnc(N4CCC(F)(F)[C@@H](O)C4)nc23)ccc1Oc1ccc2c(c1)ncn2C [Example 460] | ≥ 5000
Cc1cc(Nc2ncnc3cnc(N4CCC[C@](C)(O)C4)nc23)ccc1Oc1ccc2c(c1)ncn2C [Example 461] | ≥ 5000
Cc1cc(Nc2ncnc3cnc(N4CC5CCOC5C4)nc23)ccc1Oc1ccc2c(c1)ncn2C (stereo not shown) [Example 462] | ≥ 5000
Cc1cc(Nc2ncnc3cnc(N4CCP(C)(=O)CC4)nc23)ccc1Oc1ccc2c(c1)ncn2C [Example 463] | ≥ 5000
Cc1cc(Nc2ncnc3cnc(N4CC5CC(C4)C5O)nc23)ccc1Oc1ccc2c(c1)ncn2C (stereo not shown) [Example 464] | ≥ 5000
Cc1cc(Nc2ncnc3cnc(N4CC5(CCC5O)C4)nc23)ccc1Oc1ccc2c(c1)ncn2C (stereo not shown) [Example 465] | ≥ 5000

Each compound was assayed against ErbB2 insYVMA (HER2-YVMA, SEQ ID NO: 2) (Homo sapiens, UniProt P04626, INS775YVMA/P1170A) (assay: biochemical). Conditions: Assay 1 IC50 (nM), ErbB2 insYVMA enzyme assay.

Structure (SMILES) | IC50 [nM]
Cn1cnc2cc(Oc3ccc(Nc4ncnc5cnc(N6C[C@H]7CC[C@@H]6CO7)nc45)cc3Cl)ccc21 [Example 451] | 42.7
Cc1cc(Nc2ncnc3cnc(N4CC5CC(C4)C5O)nc23)ccc1Oc1ccc2c(c1)ncn2C (stereo not shown) [Example 464] | 9.4

Same assay, conditions: ErbB2 insYVMA enzyme assay; read-out: Assay 1 IC50

Structure (SMILES) | IC50 [nM]
C[C@@H]1CN(c2ncc3ncnc(Nc4ccc(Oc5ccc6c(c5)ncn6C)c(Cl)c4)c3n2)CCO1 [Example 452] | 47.6
Cc1c(Oc2ccc3c(c2)ncn3C)ccc(Nc2ncnc3cnc(N4CC[C@H]4C(C)(C)O)nc23)c1F [Example 453] | 64.6
Cn1cnc2cc(Oc3ccc(Nc4ncnc5cnc(N6C[C@H]7C[C@@H]6CO7)nc45)cc3Cl)ccc21 [Example 455] | 48.7
CN(CC(C)(C)O)c1ncc2ncnc(Nc3ccc(Oc4ccc5c(c4)ncn5C)c(Cl)c3)c2n1 [Example 456] | 25.9
Cc1c(Oc2ccc3c(c2)ncn3C)ccc(Nc2ncnc3cnc(N4C[C@H]5C[C@@H]4CO5)nc23)c1F [Example 457] | 25.1
Cc1c(Oc2ccc3c(c2)ncn3C)ccc(Nc2ncnc3cnc(N4CC[C@H](O)C4)nc23)c1F [Example 458] | 13.3
Cc1cc(Nc2ncnc3cnc(N4C[C@H]5C[C@@H]4C[C@H]5O)nc23)ccc1Oc1ccc2c(c1)ncn2C [Example 459] | 18.7
Cc1cc(Nc2ncnc3cnc(N4CCC(F)(F)[C@@H](O)C4)nc23)ccc1Oc1ccc2c(c1)ncn2C [Example 460] | 59.1
Cc1cc(Nc2ncnc3cnc(N4CCC[C@](C)(O)C4)nc23)ccc1Oc1ccc2c(c1)ncn2C [Example 461] | 20.5
Cc1cc(Nc2ncnc3cnc(N4CC5CCOC5C4)nc23)ccc1Oc1ccc2c(c1)ncn2C (stereo not shown) [Example 462] | 20.3
Cc1cc(Nc2ncnc3cnc(N4CCP(C)(=O)CC4)nc23)ccc1Oc1ccc2c(c1)ncn2C [Example 463] | 71.3
Cc1cc(Nc2ncnc3cnc(N4CC5(CCC5O)C4)nc23)ccc1Oc1ccc2c(c1)ncn2C (stereo not shown) [Example 465] | 44.3

These compounds were tested against ErbB2 with Exon 20 YVMA insertion (HER2-YVMA) (Homo sapiens (Human), UniProt P04626, INS775YVMA) (assay: Cellular phosphorylation assay, constitutive ErbB2 phosphorylation (Y1196) in engineered NIH 3T3 cells, Assay 4). Conditions: not given.
ErbB2 with Exon 20 YVMA insertion (HER2-YVMA), sequence (P04626 other isoform, or with tags, fused parts or gaps ins YVMA behind 775): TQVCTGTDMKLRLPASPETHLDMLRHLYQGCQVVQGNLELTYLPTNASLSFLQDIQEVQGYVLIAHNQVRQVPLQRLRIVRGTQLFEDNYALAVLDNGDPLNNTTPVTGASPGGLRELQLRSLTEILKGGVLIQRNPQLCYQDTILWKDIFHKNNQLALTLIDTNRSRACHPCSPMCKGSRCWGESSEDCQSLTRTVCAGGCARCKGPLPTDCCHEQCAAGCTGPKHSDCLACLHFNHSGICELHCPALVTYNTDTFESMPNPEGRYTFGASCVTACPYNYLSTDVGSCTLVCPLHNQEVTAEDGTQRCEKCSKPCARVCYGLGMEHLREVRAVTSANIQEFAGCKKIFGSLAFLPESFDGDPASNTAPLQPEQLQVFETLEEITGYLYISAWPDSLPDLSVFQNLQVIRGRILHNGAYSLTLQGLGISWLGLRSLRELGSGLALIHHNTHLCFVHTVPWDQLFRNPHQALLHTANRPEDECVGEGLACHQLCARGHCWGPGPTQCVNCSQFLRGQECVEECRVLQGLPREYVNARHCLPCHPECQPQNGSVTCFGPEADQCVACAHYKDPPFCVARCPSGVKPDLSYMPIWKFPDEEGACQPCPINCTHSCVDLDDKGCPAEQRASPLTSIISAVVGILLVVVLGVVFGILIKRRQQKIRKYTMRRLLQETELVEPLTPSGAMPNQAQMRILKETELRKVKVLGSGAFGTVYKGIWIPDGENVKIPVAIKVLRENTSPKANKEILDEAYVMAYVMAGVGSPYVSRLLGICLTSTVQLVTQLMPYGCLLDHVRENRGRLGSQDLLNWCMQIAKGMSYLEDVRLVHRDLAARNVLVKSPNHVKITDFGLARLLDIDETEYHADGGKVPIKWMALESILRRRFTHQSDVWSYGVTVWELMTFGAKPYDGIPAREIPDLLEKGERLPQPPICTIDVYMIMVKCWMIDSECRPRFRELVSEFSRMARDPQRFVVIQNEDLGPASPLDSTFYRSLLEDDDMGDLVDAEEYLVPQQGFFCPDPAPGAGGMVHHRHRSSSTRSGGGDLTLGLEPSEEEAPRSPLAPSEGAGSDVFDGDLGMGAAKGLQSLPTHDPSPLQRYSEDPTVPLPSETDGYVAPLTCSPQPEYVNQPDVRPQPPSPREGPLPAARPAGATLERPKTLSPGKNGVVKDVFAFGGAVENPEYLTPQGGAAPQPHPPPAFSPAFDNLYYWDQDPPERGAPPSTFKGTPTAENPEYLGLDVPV
Format: cell-based
Procedure, shortened: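 Engineered NIH 3T3 cells expressing HER2-YVMA treated with compounds 1 h at 37 °C, then formaldehyde-fixed and methanol-permeabilized. pErbB2 Y1196 detected by in-cell infrared immunofluorescence, normalized to GAPDH. IC50 from the normalized curves.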

Structure (SMILES) | IC50 [nM]
Cn1cnc2cc(Oc3ccc(Nc4ncnc5cnc(N6C[C@H]7CC[C@@H]6CO7)nc45)cc3Cl)ccc21 [Example 451] | 24.7
C[C@@H]1CN(c2ncc3ncnc(Nc4ccc(Oc5ccc6c(c5)ncn6C)c(Cl)c4)c3n2)CCO1 [Example 452] | 20.2
Cc1c(Oc2ccc3c(c2)ncn3C)ccc(Nc2ncnc3cnc(N4CC[C@H]4C(C)(C)O)nc23)c1F [Example 453] | 383
Cn1cnc2cc(Oc3ccc(Nc4ncnc5cnc(N6C[C@H]7C[C@@H]6CO7)nc45)cc3Cl)ccc21 [Example 455] | 58.2
CN(CC(C)(C)O)c1ncc2ncnc(Nc3ccc(Oc4ccc5c(c4)ncn5C)c(Cl)c3)c2n1 [Example 456] | 47.6
Cc1c(Oc2ccc3c(c2)ncn3C)ccc(Nc2ncnc3cnc(N4C[C@H]5C[C@@H]4CO5)nc23)c1F [Example 457] | 50.6
Cc1c(Oc2ccc3c(c2)ncn3C)ccc(Nc2ncnc3cnc(N4CC[C@H](O)C4)nc23)c1F [Example 458] | 75.2
Cc1cc(Nc2ncnc3cnc(N4C[C@H]5C[C@@H]4C[C@H]5O)nc23)ccc1Oc1ccc2c(c1)ncn2C [Example 459] | 45.1
Cc1cc(Nc2ncnc3cnc(N4CCC(F)(F)[C@@H](O)C4)nc23)ccc1Oc1ccc2c(c1)ncn2C [Example 460] | 88
Cc1cc(Nc2ncnc3cnc(N4CCC[C@](C)(O)C4)nc23)ccc1Oc1ccc2c(c1)ncn2C [Example 461] | 46.5
Cc1cc(Nc2ncnc3cnc(N4CC5CCOC5C4)nc23)ccc1Oc1ccc2c(c1)ncn2C (stereo not shown) [Example 462] | 18.6
Cc1cc(Nc2ncnc3cnc(N4CCP(C)(=O)CC4)nc23)ccc1Oc1ccc2c(c1)ncn2C [Example 463] | 662
Cc1cc(Nc2ncnc3cnc(N4CC5CC(C4)C5O)nc23)ccc1Oc1ccc2c(c1)ncn2C (stereo not shown) [Example 464] | 83.1
Cc1cc(Nc2ncnc3cnc(N4CC5(CCC5O)C4)nc23)ccc1Oc1ccc2c(c1)ncn2C (stereo not shown) [Example 465] | 67.8
